Test results published in paper PMC6225212, “Synthesis and Pharmacological Evaluation of Novel Silodosin-Based Arylsulfonamide Derivatives as α1A/α1D-Adrenergic Receptor Antagonist with Potential Uroselective Profile” (Molecules : A Journal of Synthetic Chemistry and Natural …, 2018).

Key:
α1-ARs = experiment: Radioligand binding, displacement of [3H]-Prazosin from α1-ARs on rat cerebral cortex; conditions: for Sα2/α1 (ratio of affinity for α2- and α1-ARs): Ki α2 / Ki α1; for Ki: [3H]-Prazosin, rat cerebral cortex, ± SEM, two independent experiments
Description: (§1) The pharmacological profile of the new compounds was assessed in radioligand-binding assays as the ability to displace [^3H]-Prazosin or [^3H]-Clonidine from α1- and α2-ARs, respectively, on rat cerebral cortex. The inhibition constants (Ki) were calculated from the Cheng-Prusoff equation [24].
(§2) The affinity of the obtained compounds was evaluated by radioligand-binding assays (the ability to displace [^3H]-Prazosin and [^3H]-Clonidine from α1- and α2-ARs, respectively) on rat cerebral cortex. The brains are homogenized in 20 volumes of an ice-cold 50 mM Tris-HCl buffer (pH 7.6) and is centrifuged (MPW Med. Instruments, Warsaw, Poland) at 20,000 g for 20 min (0–4 °C). The cell pellet is resuspended in the Tris-HCl buffer and centrifuged again. Radioligand-binding assays are performed in plates (MultiScreen/Millipore, Burlington, MA, USA). The final incubation mixture (final volume 300 µL) consisted of 240 µL of the membrane suspension, 30 µL of [^3H]-Prazosin (0.2 nM) or [^3H]-Clonidine (2 nM) solution, and 30 µL of the buffer containing seven to eight concentrations (10^−11 to 10^−4 M) of the tested compounds. For measuring the unspecific binding, phentolamine, 10 µM (in the case of [^3H]-Prazosin) and clonidine, and 10 µM (in the case of [^3H]-Clonidine), were applied. The incubation was terminated by rapid filtration over glass fiber filters (Whatman GF/C, Sigma-Aldrich) using a vacuum manifold (Millipore). The filters were then washed twice with the assay buffer and placed in scintillation vials with a liquid-scintillation cocktail. Radioactivity was measured in a WALLAC 1409 DSA liquid-scintillation counter (BioSurplus, San Diego, CA, USA). All the assays were made in duplicate.

α2-ARs = experiment: Radioligand binding, displacement of [3H]-Clonidine from α2-ARs on rat cerebral cortex; conditions: ± SEM, two independent experiments
Description: as §1, §2

human 5-HT7Rs = biological target: T1, human 5-HT7Rs (Homo sapiens, UniProt P34969); experiment: Radioligand binding screening [3H]-LSD, membranes from CHO-K1 cells; conditions: for inhibition at 1 µM: 10^−6 M, read-out: 5-HT7 %inh @ 10^−6 M; for inhibition at 0.1 µM: 10^−7 M, read-out: 5-HT7 %inh @ 10^−7 M
T1 construct: expressed in transfected cells; host or cells: CHO-K1
T1 sequence (P34969 whole entry): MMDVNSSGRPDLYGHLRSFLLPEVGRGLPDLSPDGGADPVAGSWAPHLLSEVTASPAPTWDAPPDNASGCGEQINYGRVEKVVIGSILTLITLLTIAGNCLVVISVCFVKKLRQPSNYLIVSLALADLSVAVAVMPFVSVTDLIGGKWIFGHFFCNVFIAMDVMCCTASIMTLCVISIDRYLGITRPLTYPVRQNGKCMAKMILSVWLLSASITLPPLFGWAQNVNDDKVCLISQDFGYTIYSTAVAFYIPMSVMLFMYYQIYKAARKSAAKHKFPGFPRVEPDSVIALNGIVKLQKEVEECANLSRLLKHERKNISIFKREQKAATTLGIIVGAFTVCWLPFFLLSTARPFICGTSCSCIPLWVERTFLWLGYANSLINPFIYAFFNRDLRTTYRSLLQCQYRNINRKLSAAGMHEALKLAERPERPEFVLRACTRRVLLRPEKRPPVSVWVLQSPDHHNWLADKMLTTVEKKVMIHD
Description: Experiments were performed using membranes from CHO-K1 cells stably transfected with the human 5-HT1A and 5-HT7Rs according to the methods previously described.
Binding experiments were conducted in 96-well microplates in a total volume of 250 μL of appropriate buffers. The composition of the assay buffers was as follows: 50 mM Tris-HCl, 0.1 mM EDTA, 10 mM MgCl2. The reaction mix included 50 μL solution of test compound, 50 μL of radioligand, and 150 μL of diluted membranes. All assays were incubated for 1 h (5-HT1ARs) or 2 h (5-HT7Rs) at 37 °C. Radioactivity was counted in MicroBeta2 scintillation counter (PerkinElmer, Waltham, MA, USA). Nonspecific binding is defined with 10 µM of 5-HT and 10 µM of methiothepine in 5-HT1AR and 5-HT7R binding experiments, respectively. […]

histaminic H1R = biological target: T2, histaminic H1R (Homo sapiens, UniProt P35367); experiment: Off-target panel at Eurofins Cerep, H1; type: binding; conditions: read-out: inhibition at histamine H1
T2 construct: Eurofins (Celle-Lévescault, France)
T2 sequence (P35367 whole entry): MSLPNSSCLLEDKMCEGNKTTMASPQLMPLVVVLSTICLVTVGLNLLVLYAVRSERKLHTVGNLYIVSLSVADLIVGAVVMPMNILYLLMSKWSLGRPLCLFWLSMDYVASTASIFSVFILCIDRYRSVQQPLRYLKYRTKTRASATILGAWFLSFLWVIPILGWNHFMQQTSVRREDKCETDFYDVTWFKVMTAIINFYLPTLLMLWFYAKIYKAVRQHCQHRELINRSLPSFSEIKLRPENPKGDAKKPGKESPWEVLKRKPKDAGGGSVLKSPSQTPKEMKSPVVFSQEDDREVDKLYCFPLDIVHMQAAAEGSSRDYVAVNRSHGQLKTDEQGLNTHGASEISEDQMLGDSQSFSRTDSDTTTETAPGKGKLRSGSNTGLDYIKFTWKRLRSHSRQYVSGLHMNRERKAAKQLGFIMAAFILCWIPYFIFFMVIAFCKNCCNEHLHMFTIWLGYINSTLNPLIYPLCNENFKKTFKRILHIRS
Description: (§3) Finally, the percentage of inhibition for selected compounds 9 and 10 for off-target histaminic H1R, muscarinic M1R, adrenergic β1-AR and potassium ion channel hERG were assessed at Eurofins (Celle-Lévescault, France) according to the procedure online at www.eurofins.com.

muscarinic M1R = biological target: T3, muscarinic M1R (Homo sapiens, UniProt P11229); experiment: Off-target panel at Eurofins Cerep, M1; type: binding
T3 construct: Eurofins (Celle-Lévescault, France)
T3 sequence (P11229 1-460): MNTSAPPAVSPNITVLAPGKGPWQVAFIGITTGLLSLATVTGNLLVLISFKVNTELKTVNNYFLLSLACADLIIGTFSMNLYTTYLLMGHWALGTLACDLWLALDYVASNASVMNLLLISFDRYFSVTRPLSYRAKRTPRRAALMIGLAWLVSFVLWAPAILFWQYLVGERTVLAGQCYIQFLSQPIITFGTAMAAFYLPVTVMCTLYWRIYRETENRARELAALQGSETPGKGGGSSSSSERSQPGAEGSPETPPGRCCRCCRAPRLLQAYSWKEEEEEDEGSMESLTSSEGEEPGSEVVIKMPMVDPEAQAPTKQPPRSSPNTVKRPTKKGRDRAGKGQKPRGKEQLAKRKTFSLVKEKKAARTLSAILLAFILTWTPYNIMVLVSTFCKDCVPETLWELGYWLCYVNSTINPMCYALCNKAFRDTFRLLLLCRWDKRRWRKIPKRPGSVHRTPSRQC
Description: as §3

adrenergic β1-AR = biological target: T4, adrenergic β1-AR (Homo sapiens, UniProt P08588); experiment: Off-target panel at Eurofins Cerep, β1; type: binding
T4 construct: Eurofins (Celle-Lévescault, France)
T4 sequence (P08588 whole entry): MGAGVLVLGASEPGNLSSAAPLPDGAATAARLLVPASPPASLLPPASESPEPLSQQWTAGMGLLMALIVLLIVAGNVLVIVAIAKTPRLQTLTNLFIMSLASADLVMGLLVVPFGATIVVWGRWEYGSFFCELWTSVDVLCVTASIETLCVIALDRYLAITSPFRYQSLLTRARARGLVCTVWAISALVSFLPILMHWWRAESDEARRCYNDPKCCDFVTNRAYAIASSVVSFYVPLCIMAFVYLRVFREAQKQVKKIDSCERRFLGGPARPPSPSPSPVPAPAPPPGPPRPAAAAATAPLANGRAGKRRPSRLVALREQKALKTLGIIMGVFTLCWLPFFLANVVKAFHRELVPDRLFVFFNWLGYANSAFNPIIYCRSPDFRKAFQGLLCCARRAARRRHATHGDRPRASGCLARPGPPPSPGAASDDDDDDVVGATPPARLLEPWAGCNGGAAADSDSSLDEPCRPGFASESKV
Description: as §3

hERG potassium channel = biological target: T5, hERG potassium channel (Homo sapiens, UniProt Q12809); experiment: Off-target panel at Eurofins Cerep, hERG; type: binding; conditions: read-out: inhibition at hERG channels
T5 construct: Eurofins (Celle-Lévescault, France)
T5 sequence (Q12809 whole entry): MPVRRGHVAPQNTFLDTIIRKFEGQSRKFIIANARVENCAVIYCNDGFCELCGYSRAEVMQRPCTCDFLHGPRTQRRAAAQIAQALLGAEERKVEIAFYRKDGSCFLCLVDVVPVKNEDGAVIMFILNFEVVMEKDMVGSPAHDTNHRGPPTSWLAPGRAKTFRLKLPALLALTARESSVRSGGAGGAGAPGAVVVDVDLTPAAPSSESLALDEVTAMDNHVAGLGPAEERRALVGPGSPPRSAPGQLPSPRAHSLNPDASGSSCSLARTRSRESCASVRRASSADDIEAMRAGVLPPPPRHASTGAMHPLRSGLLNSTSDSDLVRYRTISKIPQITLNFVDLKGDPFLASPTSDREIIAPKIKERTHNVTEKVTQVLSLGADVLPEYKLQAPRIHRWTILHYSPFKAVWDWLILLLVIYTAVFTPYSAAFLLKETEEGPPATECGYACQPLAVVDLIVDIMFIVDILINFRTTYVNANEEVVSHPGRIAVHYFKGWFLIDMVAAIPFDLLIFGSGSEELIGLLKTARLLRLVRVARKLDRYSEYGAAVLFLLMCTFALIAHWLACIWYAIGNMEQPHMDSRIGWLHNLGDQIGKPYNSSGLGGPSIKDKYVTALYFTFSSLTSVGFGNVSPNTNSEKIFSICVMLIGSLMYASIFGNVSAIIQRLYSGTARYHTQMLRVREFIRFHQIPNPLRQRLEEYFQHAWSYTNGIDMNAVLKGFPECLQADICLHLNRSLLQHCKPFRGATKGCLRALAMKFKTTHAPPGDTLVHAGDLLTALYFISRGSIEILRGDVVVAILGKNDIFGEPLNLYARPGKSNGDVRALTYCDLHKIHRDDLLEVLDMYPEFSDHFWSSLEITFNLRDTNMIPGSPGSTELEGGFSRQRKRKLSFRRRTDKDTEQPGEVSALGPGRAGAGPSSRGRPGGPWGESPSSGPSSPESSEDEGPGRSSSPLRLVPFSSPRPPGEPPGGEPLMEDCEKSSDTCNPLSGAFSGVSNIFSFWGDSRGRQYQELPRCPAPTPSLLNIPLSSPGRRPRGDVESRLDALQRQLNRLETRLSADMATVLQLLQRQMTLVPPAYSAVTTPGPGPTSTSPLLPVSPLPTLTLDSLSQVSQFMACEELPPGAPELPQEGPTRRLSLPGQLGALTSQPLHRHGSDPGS
Description: as §3

| Sα2/α1 (ratio of affinity for α2- and α1-ARs) (α1-ARs) | Ki (α1-ARs) [nM] | Ki (α2-ARs) [nM] | inhibition at 1 µM (human 5-HT7Rs) [%] | inhibition at 0.1 µM (human 5-HT7Rs) [%] | inhibition at 1 µM (histaminic H1R) [%] | inhibition at 1 µM (muscarinic M1R) [%] | inhibition at 1 µM (adrenergic β1-AR) [%] | SMILES | inhibition at 1 µM (hERG potassium channel) [%] |
| --- | --- | --- | --- | --- | --- | --- | --- | --- | --- |
| 17 | 50 ± 2 | 858 ± 69 | 93 | 57 | < 50 | < 50 | < 50 | O=S(=O)(NCC1CCN(CCOc2ccccc2OCC(F)(F)F)CC1)c1cccc(Cl)c1F [Compound 9, 3-Chloro-2-fluoro-N-[(1-{2-[(2,2,2-trifluoroethoxy)phenoxy]ethyl}piperidin-4-yl)methyl]benzenesulfonamide] | < 50 |
| 23 | 26 ± 1 | 579 ± 20 | 94 | 61 | < 50 | < 50 | < 50 | O=S(=O)(NCC1CCN(CCOc2ccccc2OCC(F)(F)F)CC1)c1cc(Cl)ccc1F [Compound 10, 5-Chloro-2-fluoro-N-[(1-{2-[(2,2,2-trifluoroethoxy)phenoxy]ethyl}piperidin-4-yl)methyl]benzenesulfonamide] | < 50 |
